Entries after “also recorded” stand apart in the source; their conditions may differ. Like-named read-outs stand apart in the source and are kept apart here.
Tests used:
[1] = tested on: man; settings: human, in vivo, cited from earlier work
[2] = tested on: persistent tissue forms of P. vivax and P. ovale; settings: persistent tissue forms of P. vivax and P. ovale in man; cited from earlier work
[3] = Hydrolysis in the presence of lysosomal enzymes; format: in vitro ADME, rat; settings: rat; for metabolised at 1 h: pH 4.5, 1 h; for metabolised at 2 h: pH 4.5, 2 h; for metabolised at 3 h: pH 4.5, 3 h; for metabolised at 6 h: pH 4.5, 6 h; for metabolised at 24 h: pH 4.5, 24 h
Experimental: (§1) The compounds, at a final concentration of 15 μg/ml, are incubated in 50 mM acetate buffer, pH 4.5, at 37° C. in the presence of 5 mM cysteine and a lysosomal enzyme fraction (0.15 mg protein/ml) purified from rat liver.
(§2) The purified lysosomal fraction is prepared according to the method described by Trouet (1974, Meth. Enzymol., 31, 323-334).
(§3) At intervals of time, corresponding samples are taken from the incubation. The enzyme reaction is stopped by adding 10 μl of 10M HCl per ml of sample. A volume of 20 μl is withdrawn and analyzed directly by HPLC under the standard conditions.
(§4) ^a : The compounds are incubated at pH 4.5 in the presence of
(§5) lysosomal enzymes (0.15 mg protein/ml) and 5 mM cysteine, and then
(§6) analyzed by spectrophotometry after HPLC. The initial purity of the
(§7) ^b : The results represent the relative concentration of primaquine
(§8) (PQ) and derivatives (PQX) in terms of the incubation time, expressed as
(§9) percentage of the initial concentration (time 0) after extraction.

[4] = tested on: lysosomal enzymes; assay: Hydrolysis in the presence of lysosomal enzymes; format: in vitro ADME, rat; settings: for Relative concentration of compound (% of initial concentration): pH 4.5, 37° C., 0 h; for Relative concentration of primaquine (PQ) from derivative: pH 4.5, 0 h
Experimental: as §1, §2, §3, §4, §5, §6, §7, §8, §9

[5] = tested on: human red cells; assay: Hemolytic effect on human red cells; format: cell-based
Experimental: Two important toxic effects of PQ were assessed on the two derivatives: the hemolytic effect and the conversion of hemoglobin to methemoglobin.
A+ blood is washed twice in 0.15M phosphatebuffered saline at pH 7.4 containing 20 mM glucose (GPBS), and then resuspended at a concentration of 50% in the same buffer. To this suspension, an equal volume of compound dissolved in GPBS at different concentrations (test), or of GPBS (control) is added. The final hematocrit of the suspension is 25%. After 60 minutes' incubation at 37° C., the concentration of hemoglobin and methemoglobin is determined on the total suspension, and the concentration of hemoglobin present in the supernatant after centrifugation (extracellular hemoglobin) is determined, by the cyanmethemoglobin and benzidine methods (Fairbanks V.F., 1976, in "Fundamentals of Clinical Chemistry, M.W. Tietz Editors, Saunders").

[6] = tested on: Plasmodium berghei; assay: Causal prophylactic activity on OF1 mice infected with Plasmodium berghei; format: in vivo, P. berghei (ANKA), in Swiss OF1 mice; settings: for ED50 / ED100 / minimal effective dose: Plasmodium berghei, 3 h; for ED50 / ED100 / minimal effective dose / CPD50, fold lower than for PQ: iv; for ED50: read-out: CPD50, causal prophylactic dose curing 50% of the infected and treated animals; for ED100: read-out: ED100, totally curative dose; for minimal effective dose: read-out: Minimal effective dose (MED); for PQ index: ratio CPD50 of PQ/CPD50 of the compound
Experimental: Primaquine and its derivatives are tested in the model of malaria in rodents employing the infection of mice with Plasmodium berghei, the sporozoites originating from infected Anopheles stephensi mosquitoes. This model, developed by Most H., Herman R. & Schoenfeld C. (1967), Am. J. Trop. med. Hyg. 16, 572-575, enables the casual prophylatic (tissue schizonticidal) activity of new therapeutic compounds to be determined.
The procedure used is that derived from Most H. & Montuori W.A. (1975), Am. J. Trop. Med. Hyg. 24, 179-189. It involves the system P. berghei (ANKA)/Anopheles stephensi/Swiss OF1 mice. The ANKA strain of P. b. berghei is maintained cyclically on Anopheles stephensi. The Swiss OF1 strain mouse is especially sensitive to P. b. berghei, which produces an invariably fatal infection.
The legs, wings and abdomen are removed from female mosquitoes (80 to 100 individuals per preparation) and the latter are then homogenized at 4° C. in MEM medium (GIBCO) containing 10% of fetal calf serum using a glass Potter. The sporozoite suspension is then purified from the mosquito debris by two successive centrifugations (2 min at 50 g and 5 min at 200 g) and the collected supernatant is stored at 4° C. After counting in a Petroff-Hausser chamber, the number of parasites is adjusted by dilution with the same cold medium to a density of 2×10^5 sporozoites/ml.
The causal prophylactic activity of the compounds, that is to say the dose enabling 50% of the infected animals to be cured (CPD50) is obtained by analysis of the logits of the response (expressed as a % LTS) as a function of the dose (mg PQ/kg).
A volume of 0.5 ml of the suspension containing 10^5 sporozoites is injected i.v. into female Swiss OF1 mice weighing 20 to 25 g, used for the therapeutic tests. 1.2. Chemotherapeutic treatments
Groups of 20 to 25 mice, infected as described above, are treated with a single intravenous injection of primaquine diphosphate (PQ) or of its two derivatives in hydrochloride form, three hours after inoculation of the sporozoites. The volume injected is adjusted according to the weight of the mouse, on the basis of 0.25 ml for a weight of 25 g. The compounds are diluted in phosphatebuffered saline (PBS), pH 7.0, and the pH is adjusted to 7.0. Infected but untreated mice (5 per group), receive the buffer alone and serve to monitor the infectivity of the sporozoites.
The experimental mice are kept for a period of 50 days. The development of the parasitemia is followed by daily examination of blood smears stained for 60 min with 5% Giemsa in Sorensen buffer at pH 7.2, from day 5 up to day 15. The number of infected animals can thus be determined.
(§10) The animals infected using P. berchei sporozoites are treated three hours later with a single i.v. injection of the compounds. This test enables the casual prophylactic activity of the compounds, that is the dose enabling 50% of the infected animals to be cured (CPD50), to be defined. The dose is always expressed as mg of PQ diphosphate per kg.
as §10, with “berghei” for “berchei”

[7] = Stability at room temperature; format: physicochemical; settings: for Stability at room temp. under inert atmosphere: argon
[8] = liver lysosomal enzymes, pH 4.5, 37° C., read-out: Relative concentration of compound (% of initial concentration)
[9] = single i.v. three hours after sporozoites, mg PQ diphosphate equivalent/kg
[10] = liver lysosomal enzyme fraction, read-out: Relative concentration of primaquine (PQ) from derivative

SMILES | remaining at 1 h [3, 8] [%] | remaining at 2 h [3, 8] [%] | remaining at 3 h [3, 8] [%] | remaining at 6 h [3, 8] [%] | remaining at 24 h [3, 8] [%] | Relative concentration of compound (% of initial concentration) [4] [%] | PQ index [6] | CPD50, causal prophylactic dose curing 50% of the infected and treated animals [6, 9] | ED100, totally curative dose [6, 9] | Stability at room temp. and in the air [7] | Stability at room temp. under inert atmosphere [7] | metabolised at 1 h [3, 10] [%] | metabolised at 2 h [3, 10] [%] | metabolised at 3 h [3, 10] [%] | metabolised at 6 h [3, 10] [%] | metabolised at 24 h [3, 10] [%] | Relative concentration of primaquine (PQ) from derivative [4] [%] | ED50 [6, 9] [mg/kg] | ED100 [6, 9] [mg/kg] | minimal effective dose [6, 9] [mg/kg] | other results
COc1cc(NC(C)CCCN)c2ncccc2c1 (stereo not shown) [Primaquine, 6-methoxy-8-(4-amino-1-methylbutylamino)quinoline, reference compound] | 94 | 96 | 84 | 87 | 68 | 100 | 1.00 | 18.8 (1.3) mg/kg | TOX |  |  |  |  |  |  |  |  |  |  |  | Toxic effects (words) [1]: destabilizes the red cell membrane, inducing a hemolysis; Toxic effects (words) ([1]; listed as primaquine): hemolysis; also recorded: Methemoglobinuria and gastrointestinal disorders as well as certain effects on the central nervous system; Clinical effectiveness [2]: clinically effective; Hemolytic effect [5]: concentration-dependent hemolytic effect; Hemolysis (% of total hemoglobin concentration) ([5]; 10 mM, 1 hour, 37° C., 60 min, 10000 µM): 4.7 (1.7) %; ED50 [6]: 18.8 mg/kg; ED100 [6]: ~54 mg/kg; minimal effective dose [6]: 6.5 mg/kg
COc1cc(NC(C)CCCNC(=O)CC[C@H](N)C(=O)O)c2ncccc2c1 (stereo partly drawn) [gGLU-PQ, N-(γ-L-glutamyl)primaquine] | 104 | 95 | 98 | 101 | 105 | 100 | 2.15 | 8.7 (0.7) mg/kg | 24.2 (9.8) mg/kg | unstable | stable | 0 | 0 | 0 | 0 | 0 | 0 | 8.7 | 24 | 3.2 | CPD50, fold lower than for PQ [6]: 22 -fold; Activity compared with PQ ([6]; mouse, in vivo): at least twice as active as PQ
COc1cc(NC(C)CCCNC(=O)[C@@H]2CCC(=O)N2)c2ncccc2c1 (stereo partly drawn) [pGLU-PQ, N-(α-L-pyroglutamyl)primaquine] | 94 | 97 | 97 | 96 | 76 | 99 | 1.87 | 10.0 (0.7) mg/kg | 21.8 (5.7) mg/kg | unstable | stable | 0 | 0 | 0 | 0 | 0 | 1 | 10 | 22 | 4.6 | metabolised at 48 h ([3]; liver lysosomal enzyme fraction, pH 4.5, 48 h, read-out: Relative concentration of primaquine (PQ) from derivative): 0%; remaining at 48 h ([3]; liver lysosomal enzymes, pH 4.5, 37° C., 48 h, read-out: Relative concentration of compound (% of initial concentration)): 47%; Onset of gradual decrease in relative concentration [4]: > 6 h; CPD50, fold lower than for PQ [6]: 1.9 -fold; Activity relative to PQ, fold as active ([6]; model of malaria in mice): at least 1.9 -fold

— patent publication US5110935A, “New compounds which are active against the tissue forms of malaria and method of preparation” (Ire-Celltarg, S.A., priority 1988, dated 1992)
